“And” between values parts separate entries of the source, which are not always exact repeats. Identical values can stand only once. “Also recorded” adds a separate entry of the source.
Key:
[1] = Formation of formazan dyes: control buffer and 1-Methoxy PMS, absence of malate (TABLE 21); format: biochemical; conditions: disodium salt
oral lavage [2] = test: Formation of formazan dyes: oral lavage and 1-Methoxy PMS, absence of malate (TABLE 19); format: biochemical, human; conditions: disodium salt
diaphorase [3] = test: Formation of formazan dyes: only diaphorase, not malate (TABLE 13); format: biochemical, Clostridium kluyveri; conditions: mean of three experiments
Malate dehydrogenase = target: T1, Malate dehydrogenase (Sus scrofa, UniProt P00346); test: Formation of formazan dyes: Malate dehydrogenase and 1-Methoxy PMS, absence of malate (TABLE 17); format: biochemical, pig heart; parameters: L-malate dehydrogenase (pig heart); purchased Sigma-Aldrich 10127248001 / 10127914001
T1 sequence (P00346 25-338): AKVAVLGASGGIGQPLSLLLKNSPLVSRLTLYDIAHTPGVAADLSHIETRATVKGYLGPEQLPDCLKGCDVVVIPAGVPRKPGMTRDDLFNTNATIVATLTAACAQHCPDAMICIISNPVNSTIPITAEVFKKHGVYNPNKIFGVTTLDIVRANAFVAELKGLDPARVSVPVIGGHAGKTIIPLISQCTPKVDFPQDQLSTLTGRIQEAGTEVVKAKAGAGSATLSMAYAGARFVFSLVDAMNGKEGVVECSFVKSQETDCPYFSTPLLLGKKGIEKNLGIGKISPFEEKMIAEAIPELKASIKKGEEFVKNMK

[4] = system: Malate dehydrogenase and diaphorase; test: Formation of formazan dyes: Malate dehydrogenase, diaphorase and malate (TABLE 10); format: biochemical, pig heart
[5] = Formation of formazan dyes: control buffer, malate and 1-Methoxy PMS (TABLE 22); format: biochemical
diaphorase [6] = test: Formation of formazan dyes: only diaphorase and malate (TABLE 14); format: biochemical, Clostridium kluyveri; conditions: mean of three experiments
[7] = Formation of formazan dyes: NADH and 1-methoxy PMS, absence of malate (TABLE 15); format: biochemical; conditions: disodium salt
diaphorase [8] = test: Effect of concentrations of tetrazolium salts on formation of formazan dyes (FIGS. 4A-4G); format: biochemical; conditions: 15 mM NADH+H, 20 μg diaphorase, pH 7.5; FIGS. 4A to 4G
Method: On the idea that higher concentrations of tetrazolium salts in the assay buffer would likely result in more formazan dyes in the reaction, various concentrations of tetrazolium salts were added to a reaction buffer and the formation of formazan dyes were measured at 0, 30 and 60 minutes. […] The reactions were performed at room temperature. Absorbance was taken at 0, 30 and 60 minutes.

oral lavage [9] = test: Formation of formazan dyes: oral lavage and diaphorase, not malate (TABLE 11); format: biochemical, human
[10] = Formation of formazan dyes: NADH, malate and 1-methoxy PMS (TABLE 16); format: biochemical
diaphorase [11] = test: Formation of formazan dyes: NADH, diaphorase and malate (TABLE 8); format: biochemical, Clostridium kluyveri; conditions: NADH, diaphorase and malate
oral lavage [12] = test: Formation of formazan dyes: oral lavage, malate and diaphorase (TABLE 12); format: biochemical, human; conditions: oral lavage, malate and diaphorase
diaphorase [13] = test: Formation of formazan dyes: NADH and diaphorase, absence of malate (TABLE 7); format: biochemical, Clostridium kluyveri; conditions: NADH and diaphorase, absence of malate
[14] = system: Malate dehydrogenase and diaphorase; test: Formation of formazan dyes: Malate dehydrogenase and diaphorase, absence of malate (TABLE 9); format: biochemical, pig heart

Question: Which “Absorbance, formation of formazan dyes (Means)” value (“Absorbance, formation” for short) [1] does the source give for `COc1cc(-c2ccc(-[n+]3nc(-c4ccc(C(=O)N(CCS(=O)(=O)[O-])CCS(=O)(=O)[O-])cc4)nn3-c3nc4ccccc4s3)c(OC)c2)ccc1-[n+]1nc(-c2ccc(C(=O)N(CCS(=O)(=O)[O-])CCS(=O)(=O)[O-])cc2)nn1-c1nc2ccccc2s1.[Na+].[Na+]` [WST-5, 2,2′-Dibenzothiazolyl-5,5′-bis[4-di(2-sulfoethyl)carbamoylphenyl]-3,3′-(3,3′-dimethoxy 4,4′-biphenylene)ditetrazolium, disodium salt] here?
Answer: 0.33 and 0.45 and 0.48 and 0.55

Question: And the “Absorbance, formation” value (oral lavage [2])?
Answer: 0.77 and 1.11 and 1.29 and 1.39

Question: What about the “Absorbance, formation” value (diaphorase [3]; 0 h) of the same compound?
Answer: 0.25

Question: And the “Absorbance, formation” value (diaphorase [3]; 1 h)?
Answer: 0.30

Question: What about the “Absorbance, formation” value (diaphorase [3]; 2 h) of the same compound?
Answer: 0.35

Question: And the “Absorbance, formation” value (diaphorase [3]; 3 h)?
Answer: 0.32

Question: And the “Absorbance, formation” value (diaphorase [3]; 4 h)?
Answer: 0.32

Question: And the “Absorbance, formation” value (diaphorase [3]; 6 h)?
Answer: 0.38

Question: What about the “Absorbance, formation” value (diaphorase [3]; 8 h) of the same compound?
Answer: 0.41

Question: What about the “Absorbance, formation” value (diaphorase [3]; 10 h) of the same compound?
Answer: 0.38

Question: What about the “Absorbance, formation” value (diaphorase [3]; 12 h) of the same compound?
Answer: 0.36

Question: And the “reduction by malate dehydrogenase alone” value (Malate dehydrogenase)?
Answer: did not catalyze the reduction

Question: What about the “Absorbance, formation” value (Malate dehydrogenase; disodium salt) of the same compound?
Answer: 0.24 and 0.37 and 0.41 and 0.43

Question: What about the “Formation of formazan dyes, absorbance, Means 0 h” value (“Formation … Means 0 h” below) ([4]; Malate dehydrogenase, diaphorase and malate, 0 h) of the same compound?
Answer: 0.75

Question: What about the “Formation of formazan dyes, absorbance, Means 1 h” value (from here on “Formation … Means 1 h”) ([4]; Malate dehydrogenase, diaphorase and malate, 1 h) of the same compound?
Answer: 1.32

Question: And the “Formation of formazan dyes, absorbance, Means 2 h” value (shortened to “Formation … Means 2 h”) ([4]; Malate dehydrogenase, diaphorase and malate, 2 h)?
Answer: 1.67

Question: And the “Formation of formazan dyes, absorbance, Means 3 h” value (“Formation … Means 3 h” below) ([4]; Malate dehydrogenase, diaphorase and malate, 3 h)?
Answer: 1.93

Question: And the “Formation of formazan dyes, absorbance, Means 4 h” value (from here on “Formation … Means 4 h”) ([4]; Malate dehydrogenase, diaphorase and malate, 4 h)?
Answer: 2.04

Question: And the “Formation of formazan dyes, absorbance, Means 6 h” value (shortened to “Formation … Means 6 h”) ([4]; Malate dehydrogenase, diaphorase and malate, 6 h)?
Answer: 2.20

Question: And the “Formation of formazan dyes, absorbance, Means 8 h” value (“Formation … Means 8 h” below) ([4]; Malate dehydrogenase, diaphorase and malate, 8 h)?
Answer: 2.34

Question: What about the “Formation of formazan dyes, absorbance, Means 10 h” value (from here on “Formation … Means 10 h”) ([4]; Malate dehydrogenase, diaphorase and malate, 10 h) of the same compound?
Answer: 2.49

Question: And the “Formation of formazan dyes, absorbance, Means 12 h” value (“Formation … Means 12 h” below) ([4]; Malate dehydrogenase, diaphorase and malate, 12 h)?
Answer: 2.60

Question: What about the “conversion to reduced formazan dyes” value ([4]; malate dehydrogenase, diaphorase and malate (TABLE 10), disodium salt) of the same compound?
Answer: converted to reduced formazan dyes in a time-dependent fashion; also recorded: able to catalyze the reduction

Question: What about the “Means absorbance 0 h” value [5] of the same compound?
Answer: 0.13

Question: What about the “Means absorbance 1 h” value [5] of the same compound?
Answer: 0.15

Question: And the “Means absorbance 2 h” value [5]?
Answer: 0.16

Question: What about the “Means absorbance 3 h” value [5] of the same compound?
Answer: 0.16

Question: And the “Absorbance, formation” value (diaphorase [6]; 0 h)?
Answer: 0.09

Question: What about the “Absorbance, formation” value (diaphorase [6]; 1 h) of the same compound?
Answer: 0.12

Question: And the “Absorbance, formation” value (diaphorase [6]; 2 h)?
Answer: 0.15

Question: And the “Absorbance, formation” value (diaphorase [6]; 3 h)?
Answer: 0.18

Question: What about the “Absorbance, formation” value (diaphorase [6]; 4 h) of the same compound?
Answer: 0.21

Question: And the “Absorbance, formation” value (diaphorase [6]; 6 h)?
Answer: 0.23

Question: And the “Absorbance, formation” value (diaphorase [6]; 8 h)?
Answer: 0.26

Question: And the “Absorbance, formation” value (diaphorase [6]; 10 h)?
Answer: 0.29

Question: What about the “Absorbance, formation” value (diaphorase [6]; 12 h) of the same compound?
Answer: 0.32

Question: And the “Absorbance, formation” value [7]?
Answer: 2.12 and 2.14 and 2.18 and 2.22

Question: And the “concentration of tetrazolium salt at which absorbance reached peaks” value (diaphorase [8])?
Answer: 1 mM

Question: What about the “Formation … Means 0 h” value (oral lavage [9]; oral lavage and diaphorase, not malate, 0 h) of the same compound?
Answer: 0.60

Question: And the “Formation … Means 1 h” value (oral lavage [9]; oral lavage and diaphorase, not malate, 1 h)?
Answer: 0.72

Question: What about the “Formation … Means 2 h” value (oral lavage [9]; oral lavage and diaphorase, not malate, 2 h) of the same compound?
Answer: 0.77

Question: What about the “Formation … Means 3 h” value (oral lavage [9]; oral lavage and diaphorase, not malate, 3 h) of the same compound?
Answer: 0.80

Question: What about the “Formation … Means 4 h” value (oral lavage [9]; oral lavage and diaphorase, not malate, 4 h) of the same compound?
Answer: 0.78

Question: And the “Formation … Means 6 h” value (oral lavage [9]; oral lavage and diaphorase, not malate, 6 h)?
Answer: 0.83

Question: What about the “Formation … Means 8 h” value (oral lavage [9]; oral lavage and diaphorase, not malate, 8 h) of the same compound?
Answer: 0.84

Question: What about the “Formation … Means 10 h” value (oral lavage [9]; oral lavage and diaphorase, not malate, 10 h) of the same compound?
Answer: 0.81

Question: And the “Formation … Means 12 h” value (oral lavage [9]; oral lavage and diaphorase, not malate, 12 h)?
Answer: 0.80

Question: What about the “reduction to formazan dyes by pooled oral lavage” value (oral lavage [9]; pooled oral lavage of high bleeder group, diaphorase, no added malate (TABLE 11)) of the same compound?
Answer: partially reduced to formazan dyes

Question: And the “Absorbance, formation” value [10]?
Answer: 1.84

Question: What about the “Formation … Means 0 h” value (diaphorase [11]; 0 h) of the same compound?
Answer: 2.62

Question: What about the “Formation … Means 1 h” value (diaphorase [11]; 1 h) of the same compound?
Answer: 2.48

Question: And the “Formation … Means 2 h” value (diaphorase [11]; 2 h)?
Answer: 2.44

Question: And the “Formation … Means 3 h” value (diaphorase [11]; 3 h)?
Answer: 2.41

Question: And the “Formation … Means 4 h” value (diaphorase [11]; 4 h)?
Answer: 2.45

Question: What about the “Formation … Means 6 h” value (diaphorase [11]; 6 h) of the same compound?
Answer: 2.41

Question: And the “Formation … Means 8 h” value (diaphorase [11]; 8 h)?
Answer: 2.36

Question: And the “Formation … Means 10 h” value (diaphorase [11]; 10 h)?
Answer: 2.31

Question: What about the “Formation … Means 12 h” value (diaphorase [11]; 12 h) of the same compound?
Answer: 2.26

Question: And the “Formation … Means 0 h” value (oral lavage [12]; 0 h)?
Answer: 0.57

Question: What about the “Formation … Means 1 h” value (oral lavage [12]; 1 h) of the same compound?
Answer: 0.74

Question: What about the “Formation … Means 2 h” value (oral lavage [12]; 2 h) of the same compound?
Answer: 0.80

Question: And the “Formation … Means 3 h” value (oral lavage [12]; 3 h)?
Answer: 0.75

Question: What about the “Formation … Means 4 h” value (oral lavage [12]; 4 h) of the same compound?
Answer: 0.67

Question: What about the “Formation … Means 6 h” value (oral lavage [12]; 6 h) of the same compound?
Answer: 0.85

Question: And the “Formation … Means 8 h” value (oral lavage [12]; 8 h)?
Answer: 0.90

Question: What about the “Formation … Means 10 h” value (oral lavage [12]; 10 h) of the same compound?
Answer: 1.02

Question: What about the “Formation … Means 12 h” value (oral lavage [12]; 12 h) of the same compound?
Answer: 1.08

Question: And the “Formation … Means 0 h” value (diaphorase [13]; 0 h)?
Answer: 2.81

Question: And the “Formation … Means 1 h” value (diaphorase [13]; 1 h)?
Answer: 2.81

Question: What about the “Formation … Means 2 h” value (diaphorase [13]; 2 h) of the same compound?
Answer: 2.79

Question: And the “Formation … Means 3 h” value (diaphorase [13]; 3 h)?
Answer: 2.78

Question: What about the “Formation … Means 4 h” value (diaphorase [13]; 4 h) of the same compound?
Answer: 2.86

Question: And the “Formation … Means 6 h” value (diaphorase [13]; 6 h)?
Answer: 2.83

Question: What about the “Formation … Means 8 h” value (diaphorase [13]; 8 h) of the same compound?
Answer: 2.77

Question: And the “Formation … Means 10 h” value (diaphorase [13]; 10 h)?
Answer: 2.74

Question: And the “Formation … Means 12 h” value (diaphorase [13]; 12 h)?
Answer: 2.66

Question: What about the “Formation … Means 0 h” value ([14]; Malate dehydrogenase and diaphorase, absence of malate, 0 h) of the same compound?
Answer: 0.83

Question: What about the “Formation … Means 1 h” value ([14]; Malate dehydrogenase and diaphorase, absence of malate, 1 h) of the same compound?
Answer: 1.35

Question: What about the “Formation … Means 2 h” value ([14]; Malate dehydrogenase and diaphorase, absence of malate, 2 h) of the same compound?
Answer: 1.58

Question: What about the “Formation … Means 3 h” value ([14]; Malate dehydrogenase and diaphorase, absence of malate, 3 h) of the same compound?
Answer: 1.74

Question: And the “Formation … Means 4 h” value ([14]; Malate dehydrogenase and diaphorase, absence of malate, 4 h)?
Answer: 1.86

Question: What about the “Formation … Means 6 h” value ([14]; Malate dehydrogenase and diaphorase, absence of malate, 6 h) of the same compound?
Answer: 2.06

Question: What about the “Formation … Means 8 h” value ([14]; Malate dehydrogenase and diaphorase, absence of malate, 8 h) of the same compound?
Answer: 2.24

Question: What about the “Formation … Means 10 h” value ([14]; Malate dehydrogenase and diaphorase, absence of malate, 10 h) of the same compound?
Answer: 2.33

Question: What about the “Formation … Means 12 h” value ([14]; Malate dehydrogenase and diaphorase, absence of malate, 12 h) of the same compound?
Answer: 2.33

Question: What about the “reduction of tetrazolium dye in the absence of substrate malate” value ([14]; malate dehydrogenase and diaphorase (TABLE 9)) of the same compound?
Answer: partially reduced

Source: US20180320217A1, “METHODS FOR SAMPLING AND MEASURING ORAL LAVAGE PROTEINS” (The Procter & Gamble Company, priority 2017, published 2018)
